Experimental data from patent publication US20230242616A1, “CHEMOKINE-SELECTIVE CXCR4 ECTODOMAIN-DERIVED (POLY)PEPTIDE” (Ludwig-Maximilians-Universität München, priority 2020, published 2023).
Values joined by “and” are separate entries in the source; they are usually repeats but may differ in a detail not shown here. Identical values can stand only once.

Key:
[1] = tested on: primary mouse spleen B lymphocytes; test: Transwell chemotaxis of B cells elicited by CXCL12; assay type: cell-based
Protocol: (§1) Chemotaxis analysis of murine B cells. A Transwell-based assay was used as described previously^34. Briefly, splenic B cells were isolated by negative depletion using a Pan B Cell Isolation Kit (Miltenyi Biotec. Bergisch Gladbach, Germany). Purity of the cells was between 95 and 99%. […] Chemotaxis was followed for 4 h at 37° C. in a humidified atmosphere of 5% CO2. Migrated cells were counted by flow cytometry using CountBright™ Absolute Counting Beads (Molecular Probes-Invitrogen).

[2] = tested on: Apoe−/− mice with established plaques; test: Regression model of atherosclerosis; assay type: in vivo, mouse
From the text: Control mice received saline. Mice were sacrificed after 9 weeks and vessel tissues prepared for plaque, cell, and macrophage staining. A. C, E, staining of aortic root sections with oil red O (ORO), hematoxylin eosin (HE), and anti-CD68, respectively. G, staining of aortic arch with HE. B, D, F, H, respective quantifications from 14 mice per group. Statistics: two-tailed, unpaired Mann-Whitney test; *, P<0.05; **, P<0.01.
To further test the therapeutic applicability of msR4M-L1, an in vivo test in a “regression setting” was applied to mimic the patient situation, who is typically seen by a physician only when symptoms occur. The real-life situation is thus one in which preformed plaques already exist, when a patient starts treatment. A regression model therefore better mimics the situation in patient with pre-existing atherosclerotic disease.
In a pilot study, atherogenic ApoE−/− mice were put on Western diet for 4.5 wks.

[3] = tested on: human monocytes; test: 3D migration of monocytes elicited by MIF (time-lapse microscopy); assay type: cell-based
From the text: Isolation of human peripheral blood-derived monocytes. Human peripheral blood-derived monocytes were isolated as described^14. Briefly, blood was collected from healthy donors or buffy coat obtained from the blood bank of Munich University Hospital, mixed 1:1 with PBS, and PBMCs isolated by Ficoll-Paque Plus gradient (GE Healthcare). Monocytes were purified by negative depletion using the Monocyte Isolation Kit II (Miltenyi). Monocyte purity was verified by flow cytometry using an anti-CD14 antibody (Miltenyl) and was 95-98%. […] The isolation of PBMCs from donor blood was approved by the local ethics committee of LMU Munich. 3D migration of human peripheral blood-derived monocytes by time-lapse microscopy. The 3D-migration behavior of human monocytes was assessed by time-lapse microscopy and individual cell tracking using the 3D chemotaxis μ-Slide system from Ibidi GmbH (Munich, Germany), adapting the established Ibidi dendritic cell protocol for human monocytes. […] Cell motility was monitored performing time-lapse imaging every 1 min at 37° C. for 2 h using a Leica inverted DMi8-Life Cell Imaging System equipped with a DMC2900 Digital Microscope Camera with CMOS sensor and live cell-imaging software (Leica Microsystems, Wetzlar, Germany). Images were imported as stacks to ImageJ software and analyzed with the manual tracking and chemotaxis/migration tools (Ibidi GmbH).

[4] = tested on: carotid arteries of Apoe−/− mice; test: Leukocyte adhesion in atherogenic carotid arteries ex vivo under flow; design: species or system mouse; conditions: injection three days before vessel preparation; physiological flow
Protocol: Fluos-msR4M-L1 staining and monocyte adhesion in atherosclerotic carotid arteries by multiphoton microscopy. Monocyte adhesion experiments in atherosclerotic carotid arteries under physiological flow conditions ex vivo have been established^14, 70. Seven-week-old Apoe^−/− mice were fed a Western-type HFD (0.2% cholesterol) for 12 weeks. […] On day 3, arteries were prepared and mounted into an arteriograph chamber as described^70. […] Mouse leukocytes isolated from the bone marrow of msR4M-L1- or vehicle-treated atherogenic Apoe^−/− mice were stained with fluorescent Green CMFDA or Red CMPTX (Thermo Fisher Scientific). […] The red- and green-stained cell pools were mixed at a 1:1 ratio and 3×10^6 cells in 6 mL perfused into the artery of msR4M-L1- or vehicle-treated mice, respectively. Arteries were scanned by MPM using a multispectral TCS SP8 DIVE instrument with filter-free 4TUNE NDD detection module (Leica) and the number of adherent and transmigrated leukocytes determined by scanning multi-photon excitation. Vessel structure (and plaques) were visualized by second harmonic generation (SHG).

[5] = tested on: MonoMac-6 monocytes on human aortic endothelial cells (HAoECs); test: Static monocyte adhesion, MIF-induced; assay type: cell-based; conditions: 16 nM MIF, 320 nM peptide
Protocol: Static monocyte adhesion. HAoECs were seeded at a density of 30.000 cells/well in 6 well μ-Ibidi Perfusion slides VI 0.4 (Ibidi GmbH). […] After perfusion of the chambers with fresh medium, MonoMac6 cells (1×10^6 cells/mL) in PromoCell medium were added for 30 min. Non-adhering cells were flushed away by gentle perfusion using a 30 mL syringe. To quantify adherent monocytes, 10 individual images from each treatment were acquired using a Leica DMi8 inverted microscope with a 10× objective and cells quantified using Image J.

[6] = tested on: primary human monocyte-derived macrophages; test: Dil-LDL uptake / foam cell formation, MIF-mediated; assay type: cell-based
Protocol: Dil-LDL uptake/foam cell formation. […] After washing with imaging solution (MEM without phenol red containing 30 mM HEPES, 0.5 g/L NaHCO3, pH 7.4, and 0.2% BSA), cells were exposed to 50 μg/mL 1,1′-dioctadecyl-3,3,3′3′-tetra-methylindocarbocyanine-labeled LDL (Dil-LDL) for 30 min at 4° C. followed by incubation at 37° C. for 20 min. Cells were washed with ice-cold imaging solution (pH 3.5), fixed, and counter-stained with Hoechst 33258.

[7] = tested on: Apoe−/− mice on HFD; test: In-vivo model of early atherosclerosis
Protocol: Seven-eight-week-old female Apoe^−/− mice were randomly divided into two groups of 11-12 mice each and both groups put on a Western-type HFD (0.2% cholesterol) for 4.5 weeks. Mice develop early-to-intermediate atherosclerotic lesions in this model^39. […] At the end of the experiment, mice were sacrificed, blood collected by cardiac puncture and saved for blood cell and lipid measurements and mice transcardially perfused with saline. Hearts, proximal aortas and carotid arteries were prepared and fixed for plaque morphometry and lesion analysis.
Quantification of plaques and vessel morphometry (oil red O and H&E staining). Cut heart tissue containing aortic root were embedded in optimum cutting temperature (OCT) (Sakura Finetek, Osaka, Japan) and frozen at −80° C. Eight-μm sections were prepared for oil-red O (ORO) staining and plaque immune cell analysis. The accumulation of macrophages in aortic root lesions was determined by an anti-MAC-2 antibody followed by Cy5-conjugated secondary antibody. Nuclei were visualized with DAPI. The aortic arch was cut, fixed in 4% paraformaldehyde (PFA) and embedded in paraffin. Ten-μm sections containing the three branches (brachiocephalic, left common carotid, and left subclavian artery) were prepared and stained with hematoxylin/eosin (HE) for vessel morphometry. Images were captured with a Leica DMi8 microscope and quantified using Image J.

[8] = tested on: primary mouse spleen B lymphocytes; test: Transwell chemotaxis of B cells elicited by MIF; assay type: cell-based; conditions: 16 nM MIF
Protocol: as §1

## CC[C@H](C)[C@H](NC(=O)[C@H](Cc1ccc(O)cc1)NC(=O)[C@H](CCCNC(=N)N)NC(=O)[C@H](CC(=O)O)NC(=O)CCCCCCCCCCCNC(=O)CCCCCNC(=O)[C@H](CCCCN)NC(=O)[C@H](CS)NC(=O)[C@H](CC(C)C)NC(=O)[C@H](Cc1ccccc1)NC(=O)[C@H](CC(N)=O)NC(=O)CNC(=O)[C@H](Cc1ccccc1)NC(=O)[C@H](Cc1ccc(O)cc1)NC(=O)[C@H](Cc1c[nH]c2ccccc12)NC(=O)[C@H](CC(N)=O)NC(=O)[C@H](C)NC(=O)[C@@H](NC(=O)[C@H](C)NC(=O)[C@@H](N)CC(=O)O)C(C)C)C(=O)N[C@@H](CS)C(=O)N[C@@H](CC(=O)O)C(=O)N[C@@H](CCCNC(=N)N)C(=O)N[C@@H](Cc1ccccc1)C(=O)N[C@@H](Cc1ccc(O)cc1)C(=O)N1CCC[C@H]1C(=O)N[C@@H](CC(N)=O)C(=O)N[C@@H](CC(=O)O)C(=O)N[C@@H](CC(C)C)C(=O)N[C@@H](Cc1c[nH]c2ccccc12)C(=O)N[C@H](C(N)=O)C(C)C [msR4M-L1]
[1]
  effect on CXCL12-elicited B-cell chemotaxis: unable to inhibit chemotaxis elicited by CXCL12
[2]; 4-5 mice per group, 50 μg/mouse, 3× per week
  plaque load, pilot regression study: decreased plaque load (trend)
[2]; 14 mice per group
  atherosclerotic plaques (ORO and HE aortic root, HE aortic arch), regression study: leads to a regression of atherosclerotic plaques
  intralesional inflammation, CD68+ macrophage area: reduced
[3]
  effect on MIF-triggered 3D monocyte migration: dose-dependently attenuated
  molar excess that ablates the pro-migratory effect of MIF: 2 -fold molar excess
[4]
  number of adhering leukocytes: significantly reduced the number of adhering leukocytes
[5]
  effect on MIF-induced static monocyte adhesion: ablated the pro-adhesion effect of MIF
[6]; 80 nM MIF
  effect on MIF-mediated Dil-LDL uptake: dose-dependently inhibited
[6]; Dil-LDL uptake
  inhibitory capacity compared with established MIF inhibitors: slightly better than that of ISO-1, but lower than that or NIH/IIID.9
[7]; 50 μg i.p. for 4.5 weeks
  toxicity or side effects: No toxicity or side effects were noted
[7]; 50 μg per mouse i.p., HFD 4.5 weeks
  number of lesional macrophages (MAC-2 staining): significantly decreased number of lesional macrophages
[7]; 50 μg per mouse i.p., HFD 4.5 weeks, versus vehicle
  atherosclerotic lesion size in aortic arch and root: significantly decreased
[8]
  inhibition of MIF-mediated B-cell chemotaxis: fully blocked
  molar excess over MIF at maximal inhibition: 5 -fold molar excess
[8]; read-out: IC50 of MIF-mediated B-lymphocyte chemotaxis
  IC50: 0.01 µM and 0.01 to 0.015 µM
